# Measurements as given in patent US8828942B2, “Means for treating synucleinopathies” (Affiris AG, priority 2009, dated 2014).
# “Also recorded” adds a separate entry of the source.
# How the values were obtained:
# [1] = tested on: monoclonal antibody 12-9-9; test: In vitro binding assay (ELISA) with monoclonal antibody 12-9-9; parameters: species or system mouse; key to Binding: 0: no binding to 12-9-9 detectable in ELISA; 1: weak binding: binding of mimotope weaker compared to the minimal original sequence p5436; 2: strong binding: binding of mimotope similar to the minimal original sequence p5436; settings: for Binding: binding capacity to 12-9-9 in ELISA, peptide-BSA coated (1 μM), compared with p5436; for detection/binding by monoclonal antibody 12-9-9 in ELISA: result in words
# From the text: A monoclonal antibody derived from the fusion “AFFiRiS 6”: Balb/c mice (Charles River) were immunized with original alpha-synuclein epitope LGKNEEGAPQ-C (SEQ ID NO:3) coupled to BTG (bovine thyroglobuline) and CFA (complete Freund's adjuvant; first injection) as well as IFA (incomplete Freund's adjuvant; 3 booster injections) as adjuvant. LGKNEEGAPQ-peptide-specific (SEQ ID NO: 203) antibody-producing hybridomas are detected by ELISA (LGKNEEGAPQC-peptide-coated (SEQ ID NO: 3)ELISA plates). Human alpha-synuclein (recombinant protein, p4446) is used as positive control peptide: hybridomas recognizing the recombinant protein immobilized on ELISA plates are included because they are binding both peptide and full length alpha-synuclein specifically. […] The Hybridoma clone (12-9-9; IgG1, kappa) was analysed for specific detection of the natural human alpha-synuclein epitope LGKNEEGAPQ. (SEQ ID NO: 203). 12-9-9 recognizes the injected epitope as well as full length alpha-synuclein protein (recombinant protein; obtained from rPeptide, Bogart, Ga., USA) in ELISA (see FIG. 2). […] Thus the minimal required epitope for binding has been defined as KNEEGAP (SEQ ID NO: 139).
# Peptides derived from Phage Display as well as N-terminally truncated variants thereof were coupled to BSA and bound to ELISA plates (1 μM) and subsequently incubated with the monoclonal antibody that was used for the screening procedure to analyse binding capacity of identified peptides (see FIG. 4).
# [2] = tested on: monoclonal antibody 12-9-9; test: In vitro inhibition assay (ELISA); assay type: binding, mouse; parameters: key: 0: no competition of 12-9-9 detectable in ELISA; 1: weak competition: competition of mimotope weaker compared to the minimal original sequence p5436; 2: strong competition: competition of mimotope similar to the minimal original sequence p5436; settings: competition capacity in ELISA, peptide 400 μg/ml to 3 μg/ml, plates coated with p5436 and p4446
# Protocol: Different amounts of peptides (concentrations ranging from 400 μg/ml to 3 μg/ml (serial dilutions), derived from Phage Display were incubated with the monoclonal antibody that was used for the screening procedure. Peptides diminishing subsequent binding of the antibody to the original human alpha-synuclein epitope (p5436) and the human alpha-synuclein protein (p4446) coated on ELISA plates were considered as inhibiting in this assay.
# [3] = tested on: recombinant human alpha-synuclein protein; test: In vivo testing of mimotopes: serum titer against alpha-synuclein (ELISA); settings: mice immunized with peptide-KLH, alum, OD halfmax
# Protocol: (§1) Inhibiting as well as non-inhibiting peptides were coupled to KLH and injected into mice (wildtype C57/B16 or BalbC mice; subcutaneous injection into the flank) together with an appropriate adjuvant (aluminium hydroxide). Animals were vaccinated 3 times in biweekly intervals and sera were taken biweekly as well. Titers to injected peptides as well as to an irrelevant peptide were determined with every serum. Titers against the recombinant human alpha-synuclein protein and recombinant human beta-synuclein were determined starting with Serum 2 respectively. In general sera were analysed by reaction against peptides coupled to Bovine Serum Albumin (BSA) and recombinant full length proteins which were immobilised on ELISA plates. Titers were determined using anti mouse IgG specific antibodies. For examples of immunogenicity against injected peptide and alpha-synuclein see Table 5 and Table 6.
# (§2) Female C57/B16 mice or BalbC, 5-6 mice per group, were subcutaneously immunized with 30 μg peptide coupled to KLH. Control groups were injected with PBS or the original epitope. As adjuvant alum was used. The peptides administered were all able to bind to monoclonal antibodies specifically binding aa100-109 of human alpha-synuclein although some of the peptides did inhibit the binding of the original epitope to its parental antibody in vitro only weakly (in an in vitro inhibition assay). The in vitro ELISA assay to determine the antibody titer was performed with sera of single mice (see Tab. 5) after each vaccination in a two week interval. The wells of the ELISA plate were coated with mimotope-BSA conjugates. The positive control was performed by reaction of the parental antibody with the respective mimotope-BSA conjugate. The detection was performed with anti-mouse IgG. Additionally, recombinant proteins were immobilised on ELISA plates and sera reacted accordingly. For all mimotopes tested in C57/B16 mice or BalbC, antibodies reacting to the individual injected peptide could be detected after repeated vaccination. Although not all mice induced higher titer against alpha-synuclein (see tab. 5 for examples).
# [4] = In vivo testing of mimotopes: serum titer against injected peptide (ELISA); settings: mice, 30 μg peptide coupled to KLH, alum, s.c.; titer by ELISA as OD halfmax
# Protocol: as §1, §2
Sequence,Binding [1],detection/binding by monoclonal antibody 12-9-9 in ELISA [1],Competition [2],class of immunogenicity: a Syn [3],Titer in animals OD halfmax injected pep. [4]
"DPSFALEC [p5465, mimotope]",2,,,0 (peptides inducing no immune response or a very low immune response with OD halfmax around 50 or lower.),
"KNAEGAPC [p5439, mimotope]",2,detected similarly,1,1 (peptides inducing an immune response with OD halfmax between 1000 and 51.),8000
"KNDEGAPC [p5445, mimotope]",2,,2,2 (peptides inducing an immune response with OD halfmax higher than 1000.),26000
"KNEEGAPC [p5436, reference compound]",2,detected similarly; also recorded: retained full binding capacities,2,2 (peptides inducing an immune response with OD halfmax higher than 1000.),10000
"KPSFKNEC [p5461, mimotope]",2,,,0 (peptides inducing no immune response or a very low immune response with OD halfmax around 50 or lower.),
"LGKNEEGAPC [p5402, reference compound]",2,retained full binding capacities,2,2 (peptides inducing an immune response with OD halfmax higher than 1000.),20000
"LPSFRLEC [p5466, mimotope]",1,,,0 (peptides inducing no immune response or a very low immune response with OD halfmax around 50 or lower.),
"MGKGEEGYPQC [p4454, reference compound]",2,,,1 (peptides inducing an immune response with OD halfmax between 1000 and 51.),17000
"QPSFAMEC [p5462, mimotope]",2,,,0 (peptides inducing no immune response or a very low immune response with OD halfmax around 50 or lower.),
"QPSSKLDC [p5468, mimotope]",2,,,0 (peptides inducing no immune response or a very low immune response with OD halfmax around 50 or lower.),
"RNEEGAPC [p5443, mimotope]",2,,2,1 (peptides inducing an immune response with OD halfmax between 1000 and 51.),9000
"SPSFKQEC [p5463, mimotope]",2,,,0 (peptides inducing no immune response or a very low immune response with OD halfmax around 50 or lower.),
"TASWKGEC [p5548, mimotope]",2,,1,,
"TPSWKGEC [p5464, mimotope]",2,,1,0 (peptides inducing no immune response or a very low immune response with OD halfmax around 50 or lower.),

# Further lines, with some results ahead:
Binding [1],detection/binding by monoclonal antibody 12-9-9 in ELISA [1],Sequence,Competition [2],class of immunogenicity: a Syn [3],Titer in animals OD halfmax injected pep. [4]
2,,"APSWKGEC [p5556, mimotope]",1,0 (peptides inducing no immune response or a very low immune response with OD halfmax around 50 or lower.),
2,,"KSDEGAPC [p5600, mimotope]",1,1 (peptides inducing an immune response with OD halfmax between 1000 and 51.),
2,,"RNAEGAPC [p5597, mimotope]",1,1 (peptides inducing an immune response with OD halfmax between 1000 and 51.),
2,,"RNDEGAPC [p5587, mimotope]",2,1 (peptides inducing an immune response with OD halfmax between 1000 and 51.),
2,,"RQEDGAPC [p5603, mimotope]",1,,
2,,"RSEEGAPC [p5590, mimotope]",1,1 (peptides inducing an immune response with OD halfmax between 1000 and 51.),
